System: lymphocytic leukemia P388
Assay: Lymphocytic Leukemia P388 Test
Type: in vivo, BDF1 mice
Conditions: for Median Survival: BDF1 mice; for T/C × 100 (%): ratio of survival time treated/control
Experimental: The animals used were BDF1 mice, all of one sex, weighing a minimum of 18 g and all within a 3 g weight range. There were 5 or 6 mice per test group. The tumor transplant was by intraperitoneal injection of 0.5 ml of dilute ascitic fluid containing 10^6 cells of lymphocytic leukemia P388. The test compounds were administered intraperitoneally on days 1, 5 and 9 (relative to tumor inocu-lation) at various doses. The animals were weighed and survivors recorded on a regular basis for 60 days. The median survival time and the ratio of survival time for treated (T)/control (C) animals were calculated.

[1] = dose 0.75 mg/kg intraperitoneally on days 1, 5 and 9
[2] = dose 1.5 mg/kg intraperitoneally on days 1, 5 and 9
[3] = dose 3 mg/kg intraperitoneally on days 1, 5 and 9
[4] = Mus musculus, P388, ip, read-out: T/C × 100 (%)

| SMILES | Median Survival [1] [days] | T/C × 100 (%) [1] [%] | Median Survival [2] [days] | T/C × 100 (%) [2] [%] | Median Survival [3] [days] | T/C × 100 (%) [3] [%] | response vs control in vivo at 0.75 mg/kg [4] [%] | response vs control in vivo at 1.5 mg/kg [4] [%] | response vs control in vivo at 3 mg/kg [4] [%] |
| --- | --- | --- | --- | --- | --- | --- | --- | --- | --- |
| CC(C)(C)OC(=O)N[C@@H](CCC(=O)OCc1ccccc1)C(=O)NCCNc1ccc(NCCNC(=O)[C@H](CCC(=O)OCc2ccccc2)NC(=O)OC(C)(C)C)c2c1C(=O)c1c(O)ccc(O)c1C2=O (relative stereo) [Example 43, [S-(R*,R*)]-5,5'-(9,10-Dihydro-5,8-dihydroxy-9,10-dioxo-1,4-anthracenediyl)bis(imino-2,1-ethanediylimino)]bis[4-[[(1,1-dimethylethoxy)carbonvl]amino]-5-oxopentanoic acid]bis(phenylmethyl)ester] | 16.5 | 150 | 17.0 | 155 | 18.0 | 164 |  |  |  |
| N[C@@H](CCC(=O)OCc1ccccc1)C(=O)NCCNc1ccc(NCCNC(=O)[C@@H](N)CCC(=O)OCc2ccccc2)c2c1C(=O)c1c(O)ccc(O)c1C2=O.O=C(O)C(F)(F)F.O=C(O)C(F)(F)F (relative stereo) [Example 44, [S-(R*,R*)]-5,5'-[(9,10-Dihydro-5,8-dihydroxy-9,10-dioxo-1,4-anthracenediyl)bis(imino-2,1-ethanediylimino)]bis[4-amino-5-oxopentanoic acid]bis(phenylmethyl)ester, bis(trifluoroacetate)] | 18.0 | 164 | 19.5 | 177 | 24.0 | 218 |  |  |  |
| CC(C)(C)OC(=O)N[C@@H](CC(=O)OCc1ccccc1)C(=O)NCCNc1ccc(NCCNC(=O)[C@H](CC(=O)OCc2ccccc2)NC(=O)OC(C)(C)C)c2c1C(=O)c1c(O)ccc(O)c1C2=O (relative stereo) [Example 45, [S-(R*,R*)]-4,4'-[(9,10-Dihydro-5,8-dihydroxy-9,10-dioxo-1,4-anthracenediyl)bis(imino-2,1-ethanediylimino)]bis[3-[[(1,1-dimethylethoxy)carbonyl]amino]-4-oxobutanoic acid]bis(phenylmethyl)ester] | 14.0 | 127 | 15.5 | 141 | 18.0 | 164 |  |  |  |
| N[C@@H](CC(=O)OCc1ccccc1)C(=O)NCCNc1ccc(NCCNC(=O)[C@@H](N)CC(=O)OCc2ccccc2)c2c1C(=O)c1c(O)ccc(O)c1C2=O.O=C(O)C(F)(F)F.O=C(O)C(F)(F)F (relative stereo) [Example 46, [S-(R*,R*)]-4,4'-[(9,10-Dihydro-5,8-dihydroxy-9,10-dioxo-1,4-anthracenediyl)bis(imino-2,1-ethanediylimino)]bis[3-amino-4-oxobutanoic acid]bis(phenylmethyl)ester, bis(trifluoroacetate)] | 21.0 | 191 | 25.5 | 232 | 26.0 | 236 |  |  |  |
| CC(C)(C)OC(=O)CC[C@H](NC(=O)OCc1ccccc1)C(=O)NCCNc1ccc(NCCNC(=O)[C@H](CCC(=O)OC(C)(C)C)NC(=O)OCc2ccccc2)c2c1C(=O)c1c(O)ccc(O)c1C2=O (relative stereo) [Example 47, [S-(R*,R*)]-5,5'-[(9,10-Dihydro-5,8-dihydroxy-9,10-dioxo-1,4-anthracenediyl)bis(imino-2,1-ethanediylimino)]bis[5-oxo-4-[[(phenylmethoxy)carbonyl]amino]pentanoic acid], bis(1,1-dimethylethyl)ester] | 15.0 | 136 | 17.0 | 155 | 16.5 | 150 |  |  |  |
| O=C(O)C(F)(F)F.O=C(O)C(F)(F)F.O=C(O)CC[C@H](NC(=O)OCc1ccccc1)C(=O)NCCNc1ccc(NCCNC(=O)[C@H](CCC(=O)O)NC(=O)OCc2ccccc2)c2c1C(=O)c1c(O)ccc(O)c1C2=O (relative stereo) [Example 48, [S-(R*,R*)]-5,5'-[(9,10-Dihydro-5,8-dihydroxy-9,10-dioxo-1,4-anthracenediyl)bis(imino-2,1-ethanediylimino)]bis[5-oxo-4-[[(phenylmethoxy)carbonyl]amino]pentanoic acid, bis(trifluoroacetate)] | 14.0 | 117 | 15.0 | 125 | 16.5 | 138 |  |  |  |
| Br.Br.NCC(=O)N[C@@H](Cc1ccccc1)C(=O)NCCNc1ccc(NCCNC(=O)[C@H](Cc2ccccc2)NC(=O)CN)c2c1C(=O)c1c(O)ccc(O)c1C2=O (relative stereo) [Example 54, [S-(R*,R*)]-N,N'-[(9,10-Dihydro-5,8-dihydroxy-9,10-dioxo-1,4-anthracenediyl)bis(imino-2,1-ethanediyl)]bis[glycyl-L-phenylalaninamide]dihydrobromide] | 18.5 | 185 | 19.0 | 195 | 19.0 | 190 |  |  |  |
| C[C@H](N)C(=O)NCCNc1ccc(NCCNC(=O)[C@H](C)N)c2c1C(=O)c1c(O)ccc(O)c1C2=O.Cl.Cl (stereo in doubt) [Example 16, [S-(R*,R*)]-N,N'-[(9,10-Dihydro-5,8-dihydroxy-9,10-dioxo-1,4-anthracenediyl)bis(imino-2,1-ethanediyl)]bis-[2-aminopropanamide], dihydrochloride] | 25.5 | 232 | 52.5 | 477 | 42.5 | 386 |  |  |  |
| CC(C)C[C@H](N)C(=O)NCCNc1ccc(NCCNC(=O)[C@@H](N)CC(C)C)c2c1C(=O)c1c(O)ccc(O)c1C2=O.Cl.Cl (stereo in doubt) [Example 18, [S-(R*,R*)]-N,N'-[(9,10-Dihydro-5,8-dihydroxy-9,10-dioxo-1,4-anthracenediyl)bis(imino-2,1-ethanediyl)]bis-[-amino-4-methylpentanamide], dihydrochloride] | 25.5 | 213 | 26.0 | 217 | 18.0 | 150 |  |  |  |
| CC(C)C[C@@H](N)C(=O)NCCNc1ccc(NCCNC(=O)[C@H](N)CC(C)C)c2c1C(=O)c1c(O)ccc(O)c1C2=O.Cl.Cl (stereo in doubt) [Example 20, [(R*,R*)]-N,N'-[(9,10-Dihydro-5,8-dihydroxy-9,10-dioxo-1,4-anthracenediyl)bis(imino-2,1-ethanediyl)]bis-[2-amino-4-methylentanamide], dihydrochloride] | 20.5 | 171 | 22.5 | 188 | 23.5 | 196 |  |  |  |
| C[C@@H](N)C(=O)NCCNc1ccc(NCCNC(=O)[C@@H](C)N)c2c1C(=O)c1c(O)ccc(O)c1C2=O.Cl.Cl (stereo in doubt) [Example 25, [R-(R*,R*)]-N,N'-[(9,10-Dihydro-5,8-dihydroxy-9,10-dioxo-1,4-anthracenediyl)bis(imino-2,1-ethanediyl)]bis-[2-aminopropanamide], dihydrochloride] | 19.0 | 173 | 20.0 | 182 | 24.0 | 218 |  |  |  |
| Br.Br.CC(C)C[C@H](N)C(=O)NCCNc1ccc(NCCNC(=O)[C@@H](N)CC(C)C)c2c1C(=O)c1c(O)ccc(O)c1C2=O (stereo in doubt) [Example 31, [S-(R*,R*)]-N,N'-[(9,10-Dihydro-5,8-dihydroxy-9,10-dioxo-1,4-anthracenediyl)bis(imino-2,1-ethanediyl)]bis[2-amino-4-methylpentanamide], dihydrobromide] | 17.5 | 175 | 18.0 | 180 | 21.0 | 210 |  |  |  |
| C[C@H](NC(=O)OC(C)(C)C)C(=O)N[C@@H](C)C(=O)N(CCNc1ccc(NCCN(C(=O)[C@H](C)NC(=O)[C@H](C)NC(=O)OC(C)(C)C)[C@@H](C)C(=O)O)c2c1C(=O)c1c(O)ccc(O)c1C2=O)[C@@H](C)C(=O)O [Example 7., N,N'-[(9,10-Dihydro-5,8-dihydroxy-9,10-dioxo-1,4-anthracenediyl)bis(imino-2,1-ethanediyl)]bis[N-[(1,1-dimethylethoxy)carbonyl]-L-alanyl-L-alanyl-L-alanine]] | 18.5 |  | 18.0 |  | 19.0 |  | 176 | 171 | 181 |

Reference: patent US4732970A, “Antitumor amino acid and peptide derivatives of 1,4-bis(aminoalkyl and hydroxy-aminoalkyl)amino)-5,8-dihydroxyanthraquinones” (priority 1986, dated 1988)
